# Source: patent US6914045B2, “Glycopeptide antibiotics” (Wyeth Holdings Corporation, priority 2001, dated 2005)
# Tests used:
# Escherichia coli = assay: in vitro antibacterial evaluation, MIC by broth dilution; format: cell-based; details: 18 hours at 35° C.
# [1] = system: Staphylococcus aureus-SMITH (GC 4543); assay: acute lethal infection in mice; format: in vivo; details: acute lethal infection, female CD-1 mice, intraperitoneal challenge, intravenous 30 min. after infection, 7 day survival
# In short: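 Mice (female CD-1, 20+/−2 gm) receive bacteria ip in broth or hog gastric mucin, then test agent iv after 30 min. Median effective dose is calculated from 7 day survival pooled across 3 tests.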
# Enterococcus sp. = assay: in vitro antibacterial evaluation, MIC by broth dilution; format: cell-based; details: broth dilution, 18 hours at 35° C.
# In short: (§1)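 Broth dilution per NCCLS standard M7-A2 in Muller-Hinton II […], with an inoculum of 5×10^5 CFU/mL and antibiotic spanning 64-0.06 μg/mL. The MIC is the lowest concentration that inhibits growth of the organism.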
# Staphylococcus sp. = assay: as above; format: cell-based; details: broth dilution, 18 hours at 35° C.
# In short: as §1
# Streptococcus sp. = assay: as above; format: cell-based; details: broth dilution, 18 hours at 35° C.
# In short: as §1
# [2] = anatomic pathology (histopathology of heart and kidney) in mice; format: in vivo; details: CD-1 mice, 20 mg/kg intravenously daily for 9 days, necropsy day 10, microscopic histopathology
# Method: Samples of tissues from necropsied mice were formalin-fixed, paraffin-embedded, sectioned, stained with hematoxylin and eosin, and examined microscopically. Histopathologic findings were recorded. These findings were subjectively graded on a scale corresponding to slight, mild, moderate, marked and severe as compared to untreated controls.
smiles,measurement,setting,value
"COc1ccc2cc(COC3C(CO)OC(OC4C(CO)OC(Oc5ccc(CC6NC(=O)C(C(C)c7ccccc7)NC(=O)CNC(=O)C(CO)NC(=O)C(C(O)C7CNC(=N)N7C7OC(CO)C(O)C(O)C7O)NC(=O)C(C(O)C7CNC(=N)N7)NC6=O)cc5)C(O)C4O)C(O)C3O)ccc2c1 (stereo not drawn) [Example 230a, Cyclo[glycyl-β-methylphenylalanyl-O-[4-O-[4-O-[(6-methoxy-2-naphthyl)methyl]hexopyranosyl]hexopyranosyl]tyrosyl-3-(2-iminoimidazolidin-4-yl)seryl-3-(3-hexopyranosyl-2-iminoimidazolidin-4-yl)serylseryl]]",MIC Escherichia coli (ATCC 25922),Escherichia coli,32 µg/mL
same,MIC Escherichia coli (GC 4559),Escherichia coli,32 µg/mL
same,MIC Escherichia coli (GC 4560),Escherichia coli,0.25 to 1 µg/mL
same,"median effective dose (ED50), Staphylococcus aureus-SMITH (GC 4543)",[1],0.06 mg/kg
same,MIC Enterococcus avium (GC 4558),Enterococcus sp.,2 to 4 µg/mL
same,MIC Enterococcus faecalis (ATCC 29212),Enterococcus sp.,2 to 4 µg/mL
same,MIC Enterococcus faecalis (GC 2242),Enterococcus sp.,2 to 4 µg/mL
same,MIC Enterococcus faecalis (GC 2691),Enterococcus sp.,2 to 4 µg/mL
same,MIC Enterococcus faecalis (GC 3059),Enterococcus sp.,2 to 4 µg/mL
same,MIC Enterococcus faecalis (GC 4552),Enterococcus sp.,2 to 4 µg/mL
same,MIC Enterococcus faecalis (GC 4553),Enterococcus sp.,2 to 4 µg/mL
same,MIC Enterococcus faecalis (GC 4554),Enterococcus sp.,2 to 4 µg/mL
same,MIC Enterococcus faecalis (GC 6189),Enterococcus sp.,1 to 4 µg/mL
same,MIC Enterococcus faecium (GC 2243),Enterococcus sp.,2 to 4 µg/mL
same,MIC Enterococcus faecium (GC 4556),Enterococcus sp.,2 to 4 µg/mL
same,MIC Enterococcus faecium (GC 4557),Enterococcus sp.,1 to 2 µg/mL
same,MIC Enterococcus faecalis (ATCC 29212),"Enterococcus sp.; inoculum 5×10^5 CFU/mL, strain ATCC 29212",2 to 4 µg/mL
same,MIC Enterococcus faecalis (GC 2242),"Enterococcus sp.; inoculum 5×10^5 CFU/mL, strain GC 2242",2 to 4 µg/mL
same,MIC Enterococcus faecium (GC 2243),"Enterococcus sp.; inoculum 5×10^5 CFU/mL, strain GC 2243",2 to 4 µg/mL
same,MIC Enterococcus faecalis (GC 2691),"Enterococcus sp.; inoculum 5×10^5 CFU/mL, strain GC 2691",2 to 4 µg/mL
same,MIC Enterococcus faecalis (GC 3059),"Enterococcus sp.; inoculum 5×10^5 CFU/mL, strain GC 3059",2 to 4 µg/mL
same,MIC Enterococcus faecalis (GC 4552),"Enterococcus sp.; inoculum 5×10^5 CFU/mL, strain GC 4552",2 to 4 µg/mL
same,MIC Enterococcus faecalis (GC 4553),"Enterococcus sp.; inoculum 5×10^5 CFU/mL, strain GC 4553",2 to 4 µg/mL
same,MIC Enterococcus faecalis (GC 4554),"Enterococcus sp.; inoculum 5×10^5 CFU/mL, strain GC 4554",2 to 4 µg/mL
same,MIC Enterococcus faecium (GC 4556),"Enterococcus sp.; inoculum 5×10^5 CFU/mL, strain GC 4556",2 to 4 µg/mL
same,MIC Enterococcus faecium (GC 4557),"Enterococcus sp.; inoculum 5×10^5 CFU/mL, strain GC 4557",1 to 2 µg/mL
same,MIC Enterococcus avium (GC 4558),"Enterococcus sp.; inoculum 5×10^5 CFU/mL, strain GC 4558",2 to 4 µg/mL
same,MIC Enterococcus faecalis (GC 6189),"Enterococcus sp.; inoculum 5×10^5 CFU/mL, strain GC 6189",1 to 4 µg/mL
same,MIC Coagulase Negative Staphylococcus (GC 4547),Staphylococcus sp.,0.5 to 2 µg/mL
same,MIC Coagulase Negative Staphylococcus (GC 4548),Staphylococcus sp.,0.12 to 0.5 µg/mL
same,MIC Coagulase Negative Staphylococcus (GC 4549),Staphylococcus sp.,0.12 to 0.5 µg/mL
same,MIC Coagulase Negative Staphylococcus (GC 4551),Staphylococcus sp.,0.25 to 1 µg/mL
same,MIC Coagulase Negative Staphylococcus (GC 6257),Staphylococcus sp.,0.25 to 0.5 µg/mL
same,MIC Staphylococcus aureus (ATCC 29213),Staphylococcus sp.,1 to 2 µg/mL
same,MIC Staphylococcus aureus (GC 1131),Staphylococcus sp.,0.5 to 2 µg/mL
same,MIC Staphylococcus aureus (GC 3051),Staphylococcus sp.,1 to 2 µg/mL
same,MIC Staphylococcus aureus (GC 3053),Staphylococcus sp.,1 to 2 µg/mL
same,MIC Staphylococcus aureus (GC 4541),Staphylococcus sp.,0.5 to 2 µg/mL
same,MIC Staphylococcus aureus (GC 4542),Staphylococcus sp.,0.25 to 2 µg/mL
same,MIC Staphylococcus aureus (GC 4544),Staphylococcus sp.,1 to 2 µg/mL
same,MIC Staphylococcus aureus (GC 4545),Staphylococcus sp.,0.5 to 1 µg/mL
same,MIC Staphylococcus aureus-SMITH (GC 4543),Staphylococcus sp.,0.5 to 2 µg/mL
same,MIC Staphylococcus haemolyticus (GC 4546),Staphylococcus sp.,0.25 to 1 µg/mL
same,MIC Staphylococcus aureus (ATCC 29213),Staphylococcus sp.; strain ATCC 29213,1 to 2 µg/mL
same,MIC Staphylococcus aureus (GC 1131),Staphylococcus sp.; strain GC 1131,0.5 to 2 µg/mL
same,MIC Staphylococcus aureus (GC 3051),Staphylococcus sp.; strain GC 3051,1 to 2 µg/mL
same,MIC Staphylococcus aureus (GC 3053),Staphylococcus sp.; strain GC 3053,1 to 2 µg/mL
same,MIC Staphylococcus aureus (GC 4541),Staphylococcus sp.; strain GC 4541,0.5 to 2 µg/mL
same,MIC Staphylococcus aureus (GC 4542),Staphylococcus sp.; strain GC 4542,0.25 to 2 µg/mL
same,MIC Staphylococcus aureus-SMITH (GC 4543),Staphylococcus sp.; strain GC 4543,0.5 to 2 µg/mL
same,MIC Staphylococcus aureus (GC 4544),Staphylococcus sp.; strain GC 4544,1 to 2 µg/mL
same,MIC Staphylococcus aureus (GC 4545),Staphylococcus sp.; strain GC 4545,0.5 to 1 µg/mL
same,MIC Staphylococcus haemolyticus (GC 4546),Staphylococcus sp.; strain GC 4546,0.25 to 1 µg/mL
same,MIC Coagulase Negative Staphylococcus (GC 4547),Staphylococcus sp.; strain GC 4547,0.5 to 2 µg/mL
same,MIC Coagulase Negative Staphylococcus (GC 4548),Staphylococcus sp.; strain GC 4548,0.12 to 0.5 µg/mL
same,MIC Coagulase Negative Staphylococcus (GC 4549),Staphylococcus sp.; strain GC 4549,0.12 to 0.5 µg/mL
same,MIC Coagulase Negative Staphylococcus (GC 4551),Staphylococcus sp.; strain GC 4551,0.25 to 1 µg/mL
same,MIC Coagulase Negative Staphylococcus (GC 6257),Staphylococcus sp.; strain GC 6257,0.25 to 0.5 µg/mL
same,MIC Streptococcus agalactiae (GC 4564),Streptococcus sp.,<0.06 to 0.12 µg/mL
same,MIC Streptococcus pneumoniae (ATCC 6301),Streptococcus sp.,<0.06 µg/mL
same,MIC Streptococcus pneumoniae (GC 1894),Streptococcus sp.,<0.06 µg/mL
same,MIC Streptococcus pneumoniae (GC 4565),Streptococcus sp.,<0.06 µg/mL
same,MIC Streptococcus pyogenes (GC 4563),Streptococcus sp.,<0.06 to 0.25 µg/mL
same,MIC Streptococcus pneumoniae (ATCC 6301),"Streptococcus sp.; inoculum 5×10^5 CFU/mL, strain ATCC 6301",<0.06 µg/mL
same,MIC Streptococcus pneumoniae (GC 1894),"Streptococcus sp.; inoculum 5×10^5 CFU/mL, strain GC 1894",<0.06 µg/mL
same,MIC Streptococcus pyogenes (GC 4563),"Streptococcus sp.; inoculum 5×10^5 CFU/mL, strain GC 4563",<0.06 to 0.25 µg/mL
same,MIC Streptococcus agalactiae (GC 4564),"Streptococcus sp.; inoculum 5×10^5 CFU/mL, strain GC 4564",<0.06 to 0.12 µg/mL
same,MIC Streptococcus pneumoniae (GC 4565),"Streptococcus sp.; inoculum 5×10^5 CFU/mL, strain GC 4565",<0.06 µg/mL
same,"Anatomical Pathology (Day 10), Heart",[2],0
same,"Anatomical Pathology (Day 10), Kidney",[2],+
